Source: ChEMBL document CHEMBL4359910, “From random to rational: A discovery approach to selective subnanomolar inhibitors of human carbonic anhydrase IV based on the Castagnoli-Cushman multicomponent reaction” (Eur J Med Chem, 2019)

Key:
T98G = experiment: Cytotoxicity against human T98G cells measured after 48 hrs under normoxia condition in presence of CoCl2 by MTT assay; assay type: functional, cell-based
ARPE-19 [1] = experiment: Cytotoxicity against human ARPE19 cells at 30 to 300 uM measured after 48 hrs under normoxia condition in presence of CoCl2 by MTT assay relative to control; assay type: cell-based; conditions: arpe-19, 48 h
ARPE-19 [2] = experiment: Cytotoxicity against human ARPE19 cells at 300 uM measured after 48 hrs under normoxia condition in presence of CoCl2 by MTT assay; assay type: cell-based; conditions: arpe-19, 48 h

| SMILES | Activity (T98G) | Activity (ARPE-19 [1]) [%] | Activity (ARPE-19 [2]) |
| --- | --- | --- | --- |
| CC(=O)OCCNC(=O)[C@H]1CC(=O)N(c2ccc(S(N)(=O)=O)cc2)[C@@H]1c1ccc(Cl)cc1 | Dose-dependent effect | 80 | – |
| NS(=O)(=O)c1ccc(N2C(=O)C[C@H](C(=O)NCCCn3ccnc3)[C@H]2c2ccc(Cl)cc2)cc1 (racemic) | Dose-dependent effect | 80 | – |
| CN1CCN(CCCNC(=O)[C@H]2CC(=O)N(c3ccc(S(N)(=O)=O)cc3)[C@@H]2c2ccc(Cl)cc2)CC1 (racemic) | Dose-dependent effect | – | Toxic |
| NS(=O)(=O)c1ccc(N2C(=O)C[C@H](C(=O)NCCCN3CCCC3)[C@H]2c2ccc(Cl)cc2)cc1 (racemic) | Dose-dependent effect | 80 | – |
| NS(=O)(=O)c1ccc(N2C(=O)C[C@H](C(=O)NCCC(=O)O)[C@H]2c2ccc(Cl)cc2)cc1 (racemic) | Dose-dependent effect | – | – |
| NS(=O)(=O)c1ccc(N2C(=O)C[C@H](C(=O)NCCCO)[C@H]2c2ccc(Cl)cc2)cc1 (racemic) | Dose-dependent effect | – | – |
